Patent publication US10231946B2, “Methods of treating ischemic organ damage and other disorders” (Zafgen, Inc., priority 2013, dated 2019)

Key:
Assay type in all cases: in vivo, human
sRAGE = sRAGE study in obese patients treated twice weekly for 81 days; settings: 0.6, 1.2 or 2.4 mg twice weekly for 81 days, FIG. 1
Procedure: (§1) Obese patients were treated in three cohorts with intravenous administration of a formulation of the compound A. The compound was intravenously administered to each patient of a cohort (except for a placebo cohort) twice weekly for 81 days. Each of patients in the three non-placebo cohorts received either 0.6 mg of compound A (cohort 1); 1.2 mg (cohort 2); or 2.4 mg (cohort 3) doses of the compound at the time of administration. The trial was conducted under the appropriate government and medical supervision.

adiponectin [1] = test: Plasma adiponectin after twelve weeks (81 days) of treatment in obese patients; settings: doses 0 (placebo), 0.6, 1.2 and 2.4 mg, FIG. 2
Procedure: as §1

adiponectin [2] = test: Plasma adiponectin (total, ALPCO ELISA; high molecular weight form) after 4 weeks of intravenous treatment in obese patients

SMILES	levels of sRAGE in patients' serum (sRAGE)	plasma adiponectin (adiponectin [1])	total plasma adiponectin (adiponectin [2]; after 4 weeks of intravenous treatment versus placebo, ALPCO ELISA, FIG. 3)	high molecular weight form of adiponectin (adiponectin [2]; after 4 weeks of intravenous treatment with 1.9 mg versus placebo, FIG. 4)
CO[C@@H]1[C@H](OC(=O)/C=C/c2ccc(OCCN(C)C)cc2)CC[C@]2(CO2)[C@H]1[C@@]1(C)O[C@@H]1CC=C(C)C.O=C(O)C(=O)O [6-O-(4-dimethylaminoethoxy)cinnamoyl fumagillol oxalate]	increase			
CO[C@@H]1[C@H](OC(=O)C=Cc2ccc(OCCN(C)C)cc2)CC[C@]2(CO2)[C@H]1[C@@]1(C)O[C@@H]1CC=C(C)C [Compound A, O-(4-dimethylaminoethoxycinnamoyl)fumagillol]		dose proportional increases	increases in total plasma adiponectin	increases in the high molecular weight form of adiponectin
